Measurements: PMC12040169 (PLOS Biology, 2025)

Experiment: in vitro
Conditions: human, hela cells, % viability

SMILES | viability at 28.5 h, 10 µM
FC(F)(F)c1cnc(Sc2c[nH]nn2)c(Cl)c1 [CBK007252] | 93.3%
Cc1nc2c(c(=O)[nH]1)CN(Cc1ccc(Cl)cc1)CC2 [CBK282415] | 84.5%
c1csc(-c2csc3ncnc(NCCCN4CCOCC4)c23)c1 [CBK267166] | 98.1%
c1ccc2c(CN3CCCNCC3)cccc2c1 [CBK028773] | 81%
CCOc1ccc(-c2ccnc(NCC(C)(C)CO)n2)cc1C(=O)O [CBK307530] | 88.6%
CN(Cc1nc(-c2ccccc2)no1)C(=O)C1CCOC1 (centres unmarked) [CBK306755] | 107%
COc1ccc(Cl)cc1N1CCN(CC2CCCCC2)CC1 [CBK138336] | 77.8%
CNc1cc(N2CCN(S(=O)(=O)c3ccc(C)cc3)CC2)ccc1[N+](=O)[O-] [CBK266005] | 104%
CN(C)CCCC(O)(c1ccccc1)c1ccccc1 [CBK012599] | 109%
Cc1nc2cc(OCc3nc(C(=O)N(CCO)CCO)co3)ccc2s1 [CBK307684] | 89.9%
O=C(CC1(C(F)(F)F)NCCN1)c1ccco1 [CBK022373] | 82.6%
O=C(Nc1nnc(-c2ccc3c(c2)OCCO3)o1)c1ccc2c(c1)OCCO2 [CBK287403] | 84.5%
O=C(O)c1ccc(CN2C[C@H](O)C[C@H]2c2nc(-c3ccccn3)no2)cc1 [CBK288869] | 90%
CCCn1nc(COc2cccc(F)c2)nc1C1CCN(C(C)=O)CC1 [CBK306637] | 97.7%
O=C(CN1CCOCC1)Nc1ccc(NC(=O)CN2CCOCC2)c(Cl)c1 [CBK264243] | 112%
COC(=O)c1cc(Br)c(NC(=O)c2cccs2)cc1OC [CBK066842] | 86.6%
CCOC(=O)N1CCC(NC(=O)N2CCN(c3ccc(F)cc3)CC2)CC1 [CBK156429] | 106%
O=C(NC(=S)Nc1cccc(Cl)c1)c1cncc(Br)c1 [CBK264618] | 94.1%
Oc1ccc(/N=C/C=C/c2ccc(Cl)cc2Cl)cc1-c1nc2ccccc2s1 [CBK261242] | 107%
CC(=O)Nc1cc2nc3ccccc3nc2cc1NC(C)=O [CBK261018] | 92.6%
COCCN(C(=O)CSc1ccc2ccccc2n1)C1CCS(=O)(=O)C1 (centres unmarked) [CBK304988] | 96.4%
Cc1n[nH]c(NC(=O)/C=C/C(=O)O)c1-c1ccc(F)cc1 [CBK287068] | 96.7%

SMILES | viability at 28.5 h, 10 µM
Fc1ccc(-c2ccc(CNCCCN3CCOCC3)o2)cc1 [CBK278199C] | 84.5%
CCCNCC(=O)N1CCN(C(=O)c2ccc(C)cc2)CC1 [CBK025546] | 103%
Cc1ccc(NC2=NC3(N=C(N)N2)C(=O)N(C)c2ccccc23)cc1 (centres unmarked) [CBK270157] | 84.9%
COc1ccc(NC(=O)CSc2ncnc3sc(C)cc23)c(OC)c1 [CBK277541] | 100%
c1ccc(-c2cnc3c(N4CCCC4)nc(-c4cccnc4)cn23)cc1 [CBK092245] | 86.7%
Cc1nc(-c2cccnc2)[nH]c(=O)c1CC(=O)N(C)CC1CCCCC1 [CBK305785] | 91.4%
COc1ccc(-c2nc(C#N)c(NCCN3CCOCC3)o2)cc1 [CBK265769] | 108%
COc1ccc(Nc2ncc(C(=O)NCCCN3CCCC3)c3ccccc23)cc1 [CBK291114] | 106%
Cc1ccc(Oc2ccc([N+](=O)[O-])cc2F)c(Br)c1 [CBK002821] | 90.3%
c1cncc(CCNc2nccnc2-c2cccnc2)c1 [CBK037380] | 93%
CC(C)(C)OC(=O)N1CCCC(NC(CO)c2ccco2)CC1 (centres unmarked) [CBK304049] | 101%
NS(=O)(=O)c1ccc(CNC(=S)NC2CCCC2)cc1 [CBK265802] | 97.8%
Cc1nc(N(C)C)ncc1C(=O)NCCSc1nnnn1C [CBK306673] | 93.1%
N=c1c2c(-c3ccccc3)c(-c3ccccc3)oc2ncn1CCCN1CCOCC1 [CBK268484] | 92.6%
O=C(Cn1cnc2c(cnn2-c2cccc(Cl)c2)c1=O)N1CCCCC1 [CBK287691] | 83.3%
Cc1cccc(C2(O)CCN(C(=O)c3cc(C(C)C)nn3C)CC2)c1 [CBK282163] | 87.5%
COC(=O)c1ccc(Nc2cccc(-c3cccc(N)c3)n2)cc1OC [CBK037619] | 102%
O=C(CC(CN1CCN(CCO)CC1)C(=O)O)Nc1ccccc1F (centres unmarked) [CBK286790] | 86%
CC(C)(C)n1cc(C(=O)N2CCNCC2c2cccc(Cl)c2)cn1 (centres unmarked) [CBK304112] | 96.9%
O=c1[nH]c2ncc(-c3cccnc3)nc2n1CCN1CCOCC1 [CBK065070] | 103%
Cc1noc(-c2cn(C)nc2C2CCCCN2C(=O)C2CC2)c1C (centres unmarked) [CBK283410] | 96.9%
Cc1ccc(S(=O)(=O)n2nncc2C)cc1 [CBK001921] | 111%

SMILES | viability at 28.5 h, 10 µM
O=C(c1cccc(C(F)(F)F)c1)N1CCCCCC1 [CBK074291] | 98.4%
Cc1c(C(=O)Nc2nccs2)nnn1-c1ccccc1 [CBK287766] | 83.9%
CS(=O)(=O)N1CCCC(C(=O)NCc2ccccn2)C1 (centres unmarked) [CBK269308] | 101%
COc1ccc(-c2ccccc2)cc1CN(Cc1ccc2c(c1)OCO2)CC(C)O (centres unmarked) [CBK286471] | 89.7%
Clc1ccc(CN2CCCN(c3cc(OC4CCCCC4)ncn3)CC2)cc1Cl [CBK083338T] | 79.5%
CC1CCc2c(sc(NC(=O)c3cccs3)c2C(=O)N2CCOCC2)C1 (centres unmarked) [CBK307101] | 100%
Cc1nn(C)cc1-c1cncn1CCCOc1ccc(Cl)cc1 [CBK281787] | 87.5%
O=C1CN(C(=O)Nc2ccc3[nH]ccc3c2)CCN1 [CBK155858] | 87%
Oc1ccc(C2N=C(c3ccccc3)N=C(c3ccccc3)N2)cc1 (centres unmarked) [CBK018755] | 95.4%
Cc1cc(C)c2c(C(C)(C)C)nn(-c3ccc(C(=O)O)cc3)c2n1 [CBK267481] | 88.4%
O=S(=O)(c1ccc(Cl)s1)N1CCN(c2ccccn2)CC1 [CBK270305] | 110%
Clc1cccc(C2N(Cc3ccccc3)CCN2Cc2ccccc2)c1 [CBK261222] | 93.1%
COc1cc(CCN2C(=O)c3cccc4cccc(c34)C2=O)c(S(=O)(=O)N2CCCC2)cc1OC [CBK264947] | 102%
CCc1ncc2c(n1)CN(Cc1cc(=O)n3cccc(C)c3n1)CC2 [CBK305914] | 84.6%
Cc1cnc2[nH]c(C3CCCN(C(=O)c4cccnc4C)C3)cc2c1 (centres unmarked) [CBK285169] | 101%
CC1(C)O[C@@H]2O[C@@H](C(O)CNC(=O)c3ccccc3)[C@@H](NC(=O)c3ccccc3)[C@@H]2O1 (some centres unmarked) [CBK008727] | 101%
Cc1cnc(COC(=O)N2C[C@@H](C)O[C@@H](C)C2)cn1 [CBK200124] | 81.4%
O=C(O)CCC(=O)NNC(=O)c1ccc(O)cc1 [CBK261353] | 105%
CC(C)(C)OC(=O)N[C@@H]1C(=O)OC(C(O)CO)[C@@H]1O (some centres unmarked) [CBK008178] | 118%
COc1ccc(-c2cc(=O)[nH]c(=S)s2)cc1 [CBK288355] | 90.5%
COc1cc(NC(=O)c2ccc(-c3cc4ccccc4oc3=O)cc2)ccc1NC(=O)C(C)C [CBK268601] | 103%
CCCc1oc(C(=O)O)cc1CN1CCCCC1 [CBK267973C] | 99%

SMILES | viability at 28.5 h, 10 µM
Cc1csc(C(Cc2ccsc2)NC(=O)c2scnc2C)n1 (centres unmarked) [CBK285098] | 106%
Cc1cnc(C(=O)NC2(c3ccc(Cl)cc3)CCC2)cn1 [CBK282775] | 95.2%
Cc1nn(CCC(=O)NCCN2CCC(C)CC2)c(C)c1Cl [CBK281571] | 104%
O=C(c1ncoc1-c1ccc(F)cc1)N1CCOCC1 [CBK282362] | 87.1%
CCn1nc(C(C)C)cc1C(=O)N1CCN(C)CC1c1ccccc1 (centres unmarked) [CBK282025] | 100%
C=CCNC(=O)N[C@H]1CO[C@H]2[C@@H]1OC[C@H]2OC(=O)Nc1ccccc1 [CBK289466] | 115%
O=C(NC(c1ccccc1)c1ccsc1)C1CCN(C/C=C/c2ccccc2)CC1 (centres unmarked) [CBK148449] | 89.4%
COc1ccc(-c2cnc(N)c(NCc3cccnc3)n2)c(OC)c1OC [CBK063540] | 99%
CC(=O)N1C[C@H]2CCCN(S(=O)(=O)c3ccc4c(c3)CCC4)[C@H]2C1 [CBK282254] | 87.5%
O=C(CCCSC1=NC(C(F)(F)F)CC(c2ccco2)N1)Nc1ccc(Cl)c(Cl)c1 (centres unmarked) [CBK268858] | 88%
O=C(c1cscn1)N1CCCC(n2cnc3cc(F)ccc32)C1 (centres unmarked) [CBK284477] | 90.8%
O=c1c(N2CCC(Sc3ccccc3)CC2)nccn1Cc1ccc(OC(F)(F)F)cc1 [CBK155257] | 94.7%
O=C(O)CC(C(=O)OC1CCCCC1)N1CCOCC1 (centres unmarked) [CBK265970] | 95.1%
O=c1cc(CN2CCOCC2)oc2c(OCc3nnnn3C3CC3)cccc12 [CBK007813] | 101%
COc1ccc(NC(=O)CC(CN2CCN(c3ccc(Cl)cc3)CC2)C(=O)O)cc1 (centres unmarked) [CBK286831] | 101%
CC(=O)N1CC[C@H]2NC(=O)CNC(=O)C3(CCCC[C@H]2C1)CCN(C(=O)c1n[nH]c2c1CCC2)CC3 [CBK292012] | 102%
FC(F)(F)c1ccnc(OCc2ccc(-c3ccccc3)cc2)c1 [CBK115826] | 108%
COc1ccc(S(=O)(=O)N2CCC(C(=O)Nc3ccccc3SC)CC2)cc1C [CBK267960] | 96.2%
CC(C)(C)c1ccc(OCC(=O)Nc2ccc(OCC(=O)O)cc2)cc1 [CBK287013] | 113%
Cc1cccc(Nc2[nH]c3cc(C)ccc3c2[N+](=O)[O-])c1 [CBK266303] | 81.9%
O=C(Nc1cccc(-c2nc3ncccc3o2)c1)c1ccc(OCc2ccccc2)cc1 [CBK263139] | 102%

Same assay, conditions: human, hela cells, % viability, bulk resorufin, single well

SMILES | viability at 28.5 h, 10 µM
O=C(O)CCn1cc(C=C2C(=O)NC(=S)NC2=O)c(-c2cc3ccccc3oc2=O)n1 [CBK265293] | 91.8%
CCc1ccc(CN2CCN(Cc3cc(Br)ccc3O)CC2)cc1 [CBK263666] | 96.5%
